{
  "source": "patent US8785503B2",
  "about": "“Biphenyl compound or pharmaceutically acceptable salt thereof, method for preparing novel biphenyl compound or pharmaceutically acceptable salt thereof, and pharmaceutical composition containing same as active ingredient for preventing or treating diabetes complications” (Korea Institute of Oriental Medicine, priority 2010, dated 2014)",
  "key": {"AGE formation": {"test_system": "AGE formation", "test": "Inhibitory effect on AGE formation (BSA with fructose and glucose, fluorescence Ex 350 nm / Em 450 nm)", "format": "biochemical, bovine", "settings": "for Inhibitory effect / IC50: 7 days", "experimental": "To determine the inhibitory effect of the compound of Chemical Formula 1 according to the present invention on formation of AGE, which are an indicator of diabetic complications and indicator of treatment efficiency assessment, the following experiment was carried out.\nBovine serum albumin (BSA) was used as a protein and the degree of binding to fructose and glucose was used as an indicator. Aminoguanidine, which is known to have very excellent inhibitory effect on AGE, was used as a positive control.\nBovine serum albumin (hereinafter, referred to as BSA; Sigma, U.S.A.) was used as a protein source. BSA was added to 50 mM phosphate buffer (pH 7.4) to be a concentration of 10 mg/mL. A mixed solution of 0.2 M fructose and 0.2 M glucose was used as a sugar source. The mixed solution of fructose and glucose was added to the prepared BSA solution. 2.5, 5 and 10 μg/mL of the compound of Chemical Formula 1 obtained from Example 1 were prepared (All compounds were dissolved in DMSO and 15% tween 80 was added thereto. Total amount of DMSO was 0.2%). The compound was added to the mixed solution of BSA and sugars and the mixture was cultured at 37° C. for 7 days.\nAt this time, 0.02% sodium azide and anticomycotics were added as an antibacterial agent and antifungal agents. A control was the cultured mixture of BSA and sugars. Blanks for the control and experimental group were those that were prepared but non-cultured. Aminoguanidine was used for a positive control, the indicator for comparing the effectiveness. All cultures were prepared in quadruplicate to avoid error as much as possible.\nAfter 7 days, the amount of AGE produced from each culture was analyzed and the result was shown. AGE has fluorescence, brown color, and a physicochemical property capable of cross-linking and has ligands which cell membrane receptors can recognize. The amount of AGE having those characteristics was measured by a microplate reader (Excitation: 350 nm, Emission: 450 nm) to analyze the inhibition degree of formation (Vinson, J. A. et al., J. Nutr. Biochem., 7: 659-663, 1996), and the inhibition rate of formation was calculated using the following Equation 1.\nAminoguanidine was used for the positive control. Aminoguanidine was dissolved in distilled water and 37, 55.6. and 74 μg/mL of aminoguanidine were cultured for 7 days as described above. After 7 days, the amount of AGE produced from culture was measured by a microplate reader (Excitation: 350 nm, Emission: 450 nm)."}, "[1]": {"test_system": "diabetic retinopathy-induced retina", "test": "Diabetic retinopathy-induced (intravitreal BSA-AGE) rat model: FITC-dextran retinal vessels, retina Western blot", "format": "in vivo, Sprague Dawley (SD) white rats", "experimental": "To determine the therapeutic effect of the compound of the present invention on retina, to which diabetic retinopathy, one example of diabetic complications, was induced, the following experiment was carried out. Sprague Dawley (SD) white rats (6 weeks) were obtained from Daehan Biolink Co. and acclimated for 7 days to the animal room. SD rats were divided into normal group, diabetic group, experimental group, and control group. The animal room was maintained under the following conditions: temperature 23° C.; humidity 40-60%; and 12 h light-dark cycle. Feeds for experimental animals and drinking water were provided without limitation. All experiments were carried out in accordance with Standard Operation Procedures (SOP) by Institutional Animal Care and Use Committee (IACUC). SD rats were anesthetized by an intraperitoneal injection of 5 mg/mL of Zoletil and 5 mg/mL of Rompun. 20 mg/mL of BSA-AGE alone for normal group and diabetic group and both 20 mg/mL of BSA-AGE and a drug for experimental group and control group were injected via Hamilton syringes and needles to eyes. At this time, the needle was introduced into the sclera, 3 mm away from the corneal limbus, and after confirming that the end of the needle was located in the vitreous cavity, administration was carried out. After 24 hours, eyes were removed. The compound of Chemical Formula 1 obtained from Example 1 was used for the drug. A mixture of the same amount of Zoletil and Rompun was intraperitoneally injected to anesthetize animals. Hearts were obtained by opening abdominal cavity and thoracic cavity. 1 mL of fluorescent isothiocyanate dextran (FITC-dextran, Sigma, St. Louis, Mo., USA) which was prepared by dissolving […] of FITC-dextran in 1 mL of sterile physiological saline was injected into the left ventricle. After 10 minutes, eyes were removed and separated from eyecups. Left eyes were incised in four directions and placed onto a slide glass. After mounting, left eyes were observed by a fluorescent microscope. For right eyes, only retina was separated from the eye and rapidly frozen in liquid nitrogen and stored at −70° C. To prepare BSA-AGE, 30 mM glucose (Sigma, St. Louis, Mo., USA) and 20 mg/mL of BSA (Roche, Germany) were added to sodium phosphate buffer (100 mM, pH 7.4) and cultured at 37° C. for 50 days. After 50 days, BSA-AGE was injected into PD-10 column and the remaining glucose was removed by dialysis and only pure BSA-AGE was obtained. Purified BSA-AGE was aliquoted and stored at −70° C. to use. Retina stored at −70° C. was homogenized with homogenization buffer (pH 7.6). Protein quantification was carried out by Lowry's principle and SDS-PAGE electrophoresis was carried out for each […]. Migrated proteins in a gel were immobilized onto a nitrocellulose membrane and transferred to the membrane at 100 V, 250 mA for 1.5 hours. Antibodies to be quantified were immunoabsorbed to the adsorbed proteins and color was developed using an enhanced-chemiluminescence (ECL) solution. Protein expression was determined by measuring the density with Scion image analysis program."}, "retinal angiogenesis": {"test_system": "retinal angiogenesis", "test": "Oxygen induced retinopathy (OIR) mouse model: FITC-dextran, isolectin-B4 staining, retina Western blot", "format": "in vivo, mice (C58BL/6)", "experimental": "To determine the inhibitory effect of the compound of Chemical Formula 1 of the present invention on retinal angiogenesis, the following experiment was carried out. Experimental animals were mice born after crossbreeding 7-8-week-old C58BL/6. On 7th day after birth, mice (P7) were placed into an oxygen chamber and 75% of the oxygen concentration was maintained in the chamber for five days (P7-P11). 12-hour cyclic illumination was maintained in the animal room. Temperature was maintained at 24° C. Animals were allowed to access freely to feeds and drinking water. At an ambient atmosphere, the drug was intraperitoneally injected each day for five days (P12-P16). On 17th day after birth, 30 mg/kg of Zoletil (Zoletil 50, Virbac) and 10 mg/kg of Rompun (Bayer Korea) were mixed at a ratio of 3:2 and 10-fold diluted in physiological saline and 50 μL was intraperitoneally injected to anesthetize animals. After laparotomy, 100 μL of 50 mg/mL of FITC-dextran (Sigma, St. Louis, Mo., USA) dissolved in PBS was injected to a heart. When the heart stopped, eyes were removed. Retina was separated from one eye and stored at −70° C. The other eye was fixed using 4% paraformaldehyde for 10 min. After separation of retina, thin fixed retina slide was prepared and observed using a fluorescence microscope (BX51, Olympus, Japan). Retina was fixed in 4% paraformaldehyde for 3 hours, and washed with PBS, and then agitated in PBS containing triton X-100 and 1% bovine serum albumin for 3 hours. Retina was washed again and 1 mg/mL of isolectin-B4 (L2140, Sigma) was diluted in PBS to 1:50 and retina was agitated with isolectin-B4 at 4° C. for overnight. After washing the retina with PBS containing 0.05% Tween 20 for 2 hours, streptavidin-TRITC was diluted to 1:500 and allowed to react with retina at 37° C. for 4 hours. Then, retina was washed with PBS for 30 min and observed using a fluorescence microscope (BX51, Olympus, Japan). Retina stored at −70° C. was homogenized with homogenization buffer (pH 7.6). Protein quantification was carried out by Lowry's principle and SDS-PAGE electrophoresis was carried out for each 30 μg. Migrated proteins in a gel were immobilized onto a nitrocellulose membrane and transferred to the membrane at 100 V, 250 mA for 1.5 hours. Antibodies to be quantified were immunoabsorbed to the adsorbed proteins and color was developed using an enhanced-chemiluminescence (ECL) solution. Protein expression was determined by measuring the density with Scion image analysis program."}, "[2]": {"settings": "across doses, vs. diabetic group"}, "[3]": {"settings": "100 mg/kg, intraperitoneal P12-P16"}, "[4]": {"settings": "across doses, intraperitoneal P12-P16"}},
  "data": [
    {"smiles": "N=C(N)NN", "note": "[Aminoguanidine, reference compound]", "values": [
      {"measurement": "Inhibitory effect", "setting": "AGE formation; 37 μg/mL", "value": "44.53 ± 2.33", "unit": "%"},
      {"measurement": "Inhibitory effect", "setting": "AGE formation; 55.5 μg/mL", "value": "49.97 ± 0.59", "unit": "%"},
      {"measurement": "Inhibitory effect", "setting": "AGE formation; 74 μg/mL", "value": "56.37 ± 0.67", "unit": "%"},
      {"measurement": "IC50", "setting": "AGE formation", "value": "1060 ± 57.2", "unit": "µM"}
    ]},
    {"smiles": "COc1cc(O)cc(-c2ccc(O)c(O)c2)c1", "note": "[Compound of Chemical Formula 1]", "values": [
      {"measurement": "Changes in occludin (retina, Western blot)", "setting": "[1]; 100 μM, p<0.05 vs. AGE-BSA", "value": "significant increase"},
      {"measurement": "Changes in the angiogenic growth factor (retina, Western blot)", "setting": "[1]; 100 μM, p<0.05 vs. AGE-BSA", "value": "significant decrease"},
      {"measurement": "Changes in occludin (retina, Western blot)", "setting": "[1]; 150 μM, p<0.05 vs. AGE-BSA", "value": "significant increase"},
      {"measurement": "Changes in the angiogenic growth factor (retina, Western blot)", "setting": "[1]; 150 μM, p<0.05 vs. AGE-BSA", "value": "significant decrease"},
      {"measurement": "Changes in occludin (retina, Western blot)", "setting": "[1]; [2]", "value": "dose-dependent increase"},
      {"measurement": "Changes in the angiogenic growth factor (retina, Western blot)", "setting": "[1]; [2]", "value": "dose-dependent decrease"},
      {"measurement": "Inhibitory effect", "setting": "AGE formation; 2.5 μg/mL", "value": "4.25 ± 5.38", "unit": "%"},
      {"measurement": "Inhibitory effect", "setting": "AGE formation; 5 μg/mL", "value": "17.16 ± 5.86", "unit": "%"},
      {"measurement": "Inhibitory effect", "setting": "AGE formation; 10 μg/mL", "value": "54.17 ± 6.02", "unit": "%"},
      {"measurement": "IC50", "setting": "AGE formation", "value": "41 ± 3.78", "unit": "µM"},
      {"measurement": "inhibitory effect on AGE formation relative to aminoguanidine", "setting": "AGE formation; ratio of IC50 values, greater than control", "value": 26, "unit": "times"},
      {"measurement": "angiogenesis (isolectin-B4 staining)", "setting": "retinal angiogenesis; [3]", "value": "significantly inhibited"},
      {"measurement": "avascular area (FITC-dextran)", "setting": "retinal angiogenesis; [3]", "value": "significantly reduced"},
      {"measurement": "increase in length by vascular tortuosity", "setting": "retinal angiogenesis; [3]", "value": "reduced"},
      {"measurement": "Changes in the angiogenic growth factor (retina, Western blot)", "setting": "retinal angiogenesis; 100 mg/kg, p<0.05 vs. OIR", "value": "significant decrease"},
      {"measurement": "neovascular tufts (isolectin-B4 staining)", "setting": "retinal angiogenesis; [4]", "value": "ameliorated in a dose-dependent manner"},
      {"measurement": "vascular tortuosity (FITC-dextran)", "setting": "retinal angiogenesis; [4]", "value": "ameliorated in a dose-dependent manner"},
      {"measurement": "Changes in the angiogenic growth factor (retina, Western blot)", "setting": "retinal angiogenesis; across doses, vs. OIR group", "value": "dose-dependent decrease"}
    ]}
  ]
}
